Tests used:
Canis familiaris [1] = assay: Spermine Distribution in kidney was determined after DESPM dosing of 1.87 mg/kg/day for 28 days in dog(cu dose-52.4) and sacrificed at 10 days PLD(cu dose-52.4 mg/kg); type: ADME, organism-based, Canis lupus familiaris; settings: in vivo, 240 h
Canis familiaris [2] = assay: Spermidine Distribution in kidney was determined after DESPM dosing of 8.0 mg/kg/day for 4.5 days in dog(cu dose-52.4) and sacrificed at 10 days PLD(cu dose-36 mg/kg); type: ADME, organism-based, Canis lupus familiaris; settings: in vivo, 240 h
Canis familiaris [3] = assay: Spermine Distribution in kidney was determined after DESPM dosing of 8.0 mg/kg/day for 4.5 days in dog(cu dose-52.4) and sacrificed at 75 days PLD(cu dose-36 mg/kg); type: ADME, organism-based, Canis lupus familiaris; settings: in vivo, 1800 h
Canis familiaris [4] = assay: Spermidine Distribution in liver was determined after DESPM dosing of 1.87 mg/kg/day for 28 days in dog(cu dose-52.4) and sacrificed at 75 days PLD(cu dose-52.4 mg/kg); type: ADME, organism-based, Canis lupus familiaris; settings: in vivo, 1800 h
Canis familiaris [5] = assay: MESPM/MEHSPH Distribution in kidney was determined after DESPM dosing of 6.0 mg/kg/day for 4.5 days in dog(cu dose-52.4) and sacrificed at 10 days PLD(cu dose-27 mg/kg); type: ADME, organism-based, Canis lupus familiaris; settings: in vivo, 240 h
Canis familiaris [6] = assay: Spermine Distribution in liver was determined after DESPM dosing of 4 mg/kg/day for 13 days in dog(cu dose-52.4) and sacrificed at 10 days PLD(cu dose-52 mg/kg); type: ADME, organism-based, Canis lupus familiaris; settings: in vivo, 240 h
Rattus norvegicus = assay: Weight loss of rat over the 6-h experimental period when a dose of 9.4 mg/kg (23.3 administered; type: functional
Canis familiaris [7] = assay: Spermidine Distribution in liver was determined after DESPM dosing of 1.87 mg/kg/day for 28 days in dog(cu dose-52.4) and sacrificed at 10 days PLD(cu dose-52.4 mg/kg); type: ADME, organism-based, Canis lupus familiaris; settings: in vivo, 240 h
Canis familiaris [8] = assay: putrescine Distribution in kidney was determined after DESPM dosing of 1.87 mg/kg/day for 28 days in dog and sacrificed at 10 days PLD(cu dose-52.4 mg/kg); type: ADME, organism-based, Canis lupus familiaris; settings: in vivo, 240 h
Canis familiaris [9] = assay: MESPM/MEHSPH Distribution in kidney was determined after DESPM dosing of 4 mg/kg/day for 13 days in dog(cu dose-52.4) and sacrificed at 75 days PLD(cu dose-52 mg/kg); type: ADME, organism-based, Canis lupus familiaris; settings: in vivo, 1800 h
Canis familiaris [10] = assay: Spermidine Distribution in kidney was determined after DESPM dosing of 4 mg/kg/day for 13 days in dog(cu dose-52.4) and sacrificed at 75 days PLD(cu dose-52 mg/kg); type: ADME, organism-based, Canis lupus familiaris; settings: in vivo, 1800 h
Canis familiaris [11] = assay: Spermidine Distribution in kidney was determined after DESPM dosing of 1.87 mg/kg/day for 28 days in dog(cu dose-52.4) and sacrificed at 10 days PLD(cu dose-52.4 mg/kg); type: ADME, organism-based, Canis lupus familiaris; settings: in vivo, 240 h
Canis familiaris [12] = assay: putrescine Distribution in kidney was determined after DESPM dosing of 6.0 mg/kg/day for 4.5 days in dog and sacrificed at 10 days PLD(cu dose-27 mg/kg); type: ADME, organism-based, Canis lupus familiaris; settings: in vivo, 240 h
Canis familiaris [13] = assay: putrescine Distribution in liver was determined after DESPM dosing of 8.0 mg/kg/day for 4.5 days in dog(cu dose-52.4) and sacrificed at 10 days PLD(cu dose-36 mg/kg); type: ADME, organism-based, Canis lupus familiaris; settings: in vivo, 240 h
Canis familiaris [14] = assay: MESPM/MEHSPH Distribution in liver was determined after DEHSPM dosing of 2.0 mg/kg/day for 29 days in dog(cu dose-52.4) and sacrificed at 10 days PLD(cu dose-58 mg/kg); type: ADME, organism-based, Canis lupus familiaris; settings: in vivo, 240 h
Canis familiaris [15] = assay: Spermidine Distribution in kidney was determined after DEHSPM dosing of 2.0 mg/kg/day […] in dog(cu dose-52.4) and sacrificed at 10 days PLD(cu dose-22 mg/kg); type: ADME, organism-based, Canis lupus familiaris; settings: in vivo, 240 h
Canis familiaris [16] = assay: Spermidine Distribution in liver was determined after DEHSPM dosing of 2.0 mg/kg/day for 29 days in dog(cu dose-52.4) and sacrificed at 10 days PLD(cu dose-58 mg/kg); type: ADME, organism-based, Canis lupus familiaris; settings: in vivo, 240 h
Canis familiaris [17] = assay: Distribution in kidney was determined after DESPM dosing of 1.87 mg/kg/day for 28 days in dog(cu dose-52.4) and sacrificed at 75 days PLD(cu dose-52.4 mg/kg); type: ADME, organism-based, Canis lupus familiaris; settings: in vivo, 1800 h
Canis familiaris [18] = assay: Distribution in liver was determined after DESPM dosing of 6.0 mg/kg/day for 4.5 days in dog(cu dose-52.4) and sacrificed at 75 days PLD(cu dose-27 mg/kg); type: ADME, organism-based, Canis lupus familiaris; settings: in vivo, 1800 h
Canis familiaris [19] = assay: Distribution in liver was determined after DESPM dosing of 1.87 mg/kg/day for 28 days in dog(cu dose-52.4) and sacrificed at 10 days PLD(cu dose-52.4 mg/kg); type: ADME, organism-based, Canis lupus familiaris; settings: in vivo, 240 h
Canis familiaris [20] = assay: Distribution in liver was determined after DESPM dosing of 8.0 mg/kg/day for 4.5 days in dog(cu dose-52.4) and sacrificed at 10 days PLD(cu dose-36 mg/kg); type: ADME, organism-based, Canis lupus familiaris; settings: in vivo, 240 h

`CCNCCCNCCCCNCCCNCC` [BIS(ETHYL)SPERMINE] was tested, and the “Wet weight of tissue” value (Canis familiaris [1]) was 998 nM/g, the “Wet weight of tissue” value (Canis familiaris [2]) was 66 nM/g and the “Wet weight of tissue” value (Canis familiaris [3]) was 624 nM/g. For the same molecule, the “Wet weight of tissue” value (Canis familiaris [4]) was 198 nM/g, the “Wet weight of tissue” value (Canis familiaris [5]) was 10 nM/g and the “Wet weight of tissue” value (Canis familiaris [6]) was 462 nM/g. For the same molecule, the Weight loss (Rattus norvegicus) was under 5.3 g, the “Wet weight of tissue” value (Canis familiaris [7]) was 179 nM/g and the “Wet weight of tissue” value (Canis familiaris [8]) was 0 nM/g. The “Wet weight of tissue” value (Canis familiaris [9]) was 0 nM/g, the “Wet weight of tissue” value (Canis familiaris [10]) was 117 nM/g and the “Wet weight of tissue” value (Canis familiaris [11]) was 69 nM/g. For the same molecule, the “Wet weight of tissue” value (Canis familiaris [12]) was 7 nM/g and the “Wet weight of tissue” value (Canis familiaris [13]) was 109 nM/g.

`CCNCCCCNCCCCNCCCCNCC` [DIETHYLHOMOSPERMINE] was tested, and the “Wet weight of tissue” value (Canis familiaris [14]) was 72 nM/g, the “Wet weight of tissue” value (Canis familiaris [15]) was 68 nM/g and the “Wet weight of tissue” value (Canis familiaris [16]) was 50 nM/g. For the same molecule, the “Wet weight of tissue” value (Canis familiaris [17]) was 0 nM/g, the “Wet weight of tissue” value (Canis familiaris [18]) was 0 nM/g and the “Wet weight of tissue” value (Canis familiaris [19]) was 18 nM/g. The “Wet weight of tissue” value (Canis familiaris [20]) was 29 nM/g.

From ChEMBL document CHEMBL1134446, “Polyamine analogue antidiarrheals: a structure-activity study” (J Med Chem, 2001)
